Reference: EP4653001A1, “TREATMENT, DIAGNOSIS AND/OR PROGNOSIS OF MITOCHONDRIAL DISEASES” (Universidad Autónoma de Madrid, priority 2024, dated 2025)

Experiments:
[1] = tested on: 143B cells; assay: Time-course cell proliferation / survival of 143B cells; assay type: cell-based; conditions: 143B cells under combined Piericidin and G6PDi, supplemented
Method: All cell lines, 143b, HeLa, U2OS, and transmitochondrial cybrids carrying mutation in CI (ND2), CIII (CytB) or CIV (Cox2) subunits, were maintained in DMEM high glucose (HyClone), 10% FBS and 1% P/S at 37°C with 5% CO2. Mitochondrial mutant cells were cultured with supplementation of 50 µg/mL uridine. The selected cancer cell lines with different levels of malic enzyme (HCC15, KYSE410, CAKI1, J82, MDAMB453, Colo320, NCIH1703) were obtained from the DSMZ-German Collection of Microorganisms and Cell Cultures GmbH and cultured in the same DMEM 10% FBS medium. OCI-Lys3 and RCH-ACV cell lines (cells in suspension), were obtained from the same repository and cultured in RPMI 10% FBS medium. Transfections for gain- and loss-of-function studies were performed according to the manufacturer's instructions using the polyfect reagent (Qiagen, 301107). […] Subsequently, cells were trypsinized and quantified using a hemocytometer (NanoEnTek, DHC-N01). Cell viability was quantified using propidium iodide (PI; 50 µg/ml) staining.
Next, we conducted time-course experiments to gain further knowledge on the metabolic determinants underlying the observed synthetic lethality between PPP and OXPHOS. 143B cells were treated either with Piericidin or G6PDi (selective inhibitor of G6PD) alone or the combination of both and cell proliferation was quantified over the course of 96 h. […]

[2] = tested on: Colo320 cells; assay: Colo320 xenograft tumor growth; assay type: in vivo, NMRI-Foxn1^nu/nu mice
Method: Xenografts experiments were carried out in 4 weeks old female NMRI-Foxn1^nu/nu mice that were subcutaneously injected with Colo320 cells. For each tumor, 2 million cells were resuspended in Matrigel Matrix: PBS solution (1:1) (Corning, #354234) and 100 uL of volume was injected in the flanks of each mouse. Tumors were measured every other day using digital vernier caliper until the volume reached […]. At this point, they were sacrificed with CO2 and posterior cervical disruption. Tumors were isolated and frozen in -80°C for future analysis. For volume calculation, we used the formula V = ((LxW^2))/(2) [formula] in mm^3, were V = tumor volume, W = tumor width and L = tumor length.
To inhibit Mitochondrial Complex I in vivo, we employed IACS-010759 (Selleckchem, #S8731), a small-molecule inhibitor of complex I. IACS was dissolved in DMSO at a 10% concentration and then prepared for administration at 0.5% in Methyl cellulose (Sigma, #M0262). Each mouse received a dose of 10 mg/kg for five consecutive days via oral gavage.
We propose that sensitivity to OXPHOS inhibitors can be, at least in part, mediated by combined expression of the NADPH-producing enzymes G6PD and ME1. To test this hypothesis […], we correlated protein expression of G6PD and ME1 for hundreds of cell lines. […]

[3] = tested on: 143B cell lines; assay: Cell viability of CRISPR knock-out 143B cell lines treated with ETC inhibitors; assay type: cell-based
Method: All cell lines, 143b, HeLa, U2OS, and transmitochondrial cybrids carrying mutation in CI (ND2), CIII (CytB) or CIV (Cox2) subunits, were maintained in DMEM high glucose (HyClone), 10% FBS and 1% P/S at 37°C with 5% CO2. Mitochondrial mutant cells were cultured with supplementation of 50 µg/mL uridine. The selected cancer cell lines with different levels of malic enzyme (HCC15, KYSE410, CAKI1, J82, MDAMB453, Colo320, NCIH1703) were obtained from the DSMZ-German Collection of Microorganisms and Cell Cultures GmbH and cultured in the same DMEM 10% FBS medium. OCI-Lys3 and RCH-ACV cell lines (cells in suspension), were obtained from the same repository and cultured in RPMI 10% FBS medium. Transfections for gain- and loss-of-function studies were performed according to the manufacturer's instructions using the polyfect reagent (Qiagen, 301107). For cell number and proliferation experiments, cells were seeded in 12 or 6-well plates and allowed to proliferate for the specified durations. Subsequently, cells were trypsinized and quantified using a hemocytometer (NanoEnTek, DHC-N01). Cell viability was quantified using propidium iodide (PI; 50 µg/ml) staining.
Generation of knockout cell lines using CRISPR-Cas9 technology was performed with the lenti-CRISPR v2 vector (Addgene #52961). Guide sequences are: • sgGFPT1, 5-[…]-3 (SEQ ID NO: 1); • sgG6PD, 5-[…]-3 (SEQ ID NO: 2); • sgPHGDH, 5-[…]-3 (SEQ ID NO: 3); • sgMPC1, 5-[…]-3 (SEQ ID NO: 4) • sgPC, 5-CAGGCCCGGAACACACGGA-3 (SEQ ID NO: 5); • sgACLY, 5-[…]-3 (SEQ ID NO: 6); • sgME1, 5-[…]-3 (SEQ ID NO: 7).
To investigate glucose-dependent alternative metabolic pathways that become essential upon ETC inhibition, we generated through CRISPR/Cas9 technology, knock-out (KO) 143B cell lines for each of the following rate-limiting enzymes and transporters. We selected glucose 6 phosphate dehydrogenase (G6PD) for the PPP, Glutamine-Fructose-6-Phosphate Transaminase 1 (GFPT1) for the hexosamine pathway, Phosphoglycerate Dehydrogenase (PHGDH) for the serine biosynthesis pathway and Mitochondrial Pyruvate Carrier 1 (MPC1) to prevent pyruvate entry into the mitochondria. These KO and Control cells were treated with two specific ETC inhibitors (Piericidin A that targets Complex I and Antimycin A that targets Complex III) and cell viability was assessed after 3 days of treatment. […] We took advantage of the fruit fly Drosophila melanogaster model, as it is cost- and time-efficient and recapitulate a wide range of phenotypes seen in patients with metabolic and mitochondrial disorders. We obtained flies carrying mutations in Zw and Pgd genes (named: Pgd^39 Zw^lo2a), corresponding to human orthologs G6PD and 6PGD respectively. […]

## N[C@@H](CCC(=O)N[C@@H](CS)C(=O)NCC(=O)O)C(=O)O [GSH]
[1]
  cell death phenotype: rescued

## Cc1nc(-c2nc(-c3ccc(OC(F)(F)F)cc3)no2)nn1Cc1cccc(N2CCC(S(C)(=O)=O)CC2)c1 [IACS-010759]
[2]; Colo320 cells ectopically expressing ME1
  effect on tumor size: completely lost
[2]; Colo320 cells subcutaneous in nude mice, 10 mg/kg oral gavage
  tumor size: prominently reduced

## Antimycin A
[3]; G6PD KO 143B cells, after 3 days of treatment
  cell viability: sensitive
[3]; KO cells for GFPT1, PHGDH or MPC1, after 3 days of treatment
  survival or proliferation: no differences
